The assay has as its target Acetylcholinesterase (Homo sapiens, UniProt P22303). Put plainly: Inhibition of human recombinant AChE.

The values that follow come from ChEMBL document CHEMBL1156800, “Probing Torpedo californica acetylcholinesterase catalytic gorge with two novel bis-functional galanthamine derivatives” (J Med Chem, 2010).

As usually defined, the IC50 is the concentration at which inhibition is half-maximal.

Sequence of Acetylcholinesterase (P22303 whole entry): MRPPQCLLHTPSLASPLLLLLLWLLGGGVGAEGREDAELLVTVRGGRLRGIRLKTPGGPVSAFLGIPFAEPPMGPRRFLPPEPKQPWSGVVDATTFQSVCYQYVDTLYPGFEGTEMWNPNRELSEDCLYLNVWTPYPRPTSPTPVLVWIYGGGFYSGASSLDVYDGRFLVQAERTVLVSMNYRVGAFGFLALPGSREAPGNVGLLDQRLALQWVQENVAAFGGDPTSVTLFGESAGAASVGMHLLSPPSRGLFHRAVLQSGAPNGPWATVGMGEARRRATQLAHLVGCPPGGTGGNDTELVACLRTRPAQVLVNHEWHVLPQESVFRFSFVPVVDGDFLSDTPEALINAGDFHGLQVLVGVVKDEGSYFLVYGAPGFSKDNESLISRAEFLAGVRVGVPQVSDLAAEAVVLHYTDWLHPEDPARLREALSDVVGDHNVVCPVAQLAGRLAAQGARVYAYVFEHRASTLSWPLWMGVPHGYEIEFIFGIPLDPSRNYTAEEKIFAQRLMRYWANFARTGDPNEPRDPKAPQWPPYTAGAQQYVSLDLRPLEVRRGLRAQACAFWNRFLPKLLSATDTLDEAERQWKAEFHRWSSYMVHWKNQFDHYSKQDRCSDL

On to `COc1ccc2c3c1O[C@H]1C[C@@H](O)C=C[C@@]31CCN(CCCCCCCCN1C(=O)c3ccccc3S1(=O)=O)C2`, for which the IC50 turned out to be 50 nM.
